# In patent US8193364B2, “Insecticidal N-substituted (6-haloalkylpyridin-3-yl)-alkyl sulfoximines” (Dow AgroSciences, LLC., priority 2006, dated 2012):
# Where two headings read alike, the source gives them in different places.
# Legend:
# Type in all cases: in vivo
# [1] = test system: Cotton Aphid (Aphis gossypii); experiment: Cotton aphid foliar spray assay on squash; settings: 72 h, read-out: % Control of cotton aphid on squash (foliar spray)
# Protocol: Squash with fully expanded cotyledon leaves were trimmed to one cotyledon per plant and infested with cotton aphid (wingless adult and nymph) 1 day prior to chemical application. Each plant was examined before chemical application to ensure proper infestation (ca. 30-70 aphids per plant). Compounds (2 mg) were dissolved in 2 ml of acetone:methanol (1:1) solvent, forming stock solutions of 1000 ppm. The stock solutions were then diluted with a diluent consisting 80 parts of 0.025% Tween 20 in H2O and 20 parts of acetone:methanol (1:1). A hand-held Devilbiss sprayer was used to apply the test solutions until runoff to both sides of the squash cotyledon leaves. Four plants (4 replications) were used for each concentration of each compound. Reference plants (solvent check) were sprayed with the diluent only. Treated plants were held in a holding room for 3 days at approximately 23° C. and 40% RH before the number of live aphids on each plant was recorded. Insecticidal activity was measured by Corrected % Control using Abbott's correction formula and presented in Table 1: Corrected % Control=100*(X−Y)/X • where X=No. of live aphids on solvent check plants • Y=No. of live aphids on treated plants
# [2] = test system: Green Peach Aphid (Myzus persicae); experiment: Green peach aphid foliar spray assay on cabbage; settings: 72 h, read-out: % Control at ppm, foliar spray, green peach aphid on cabbage
# Protocol: Cabbage seedlings grown in 3-inch pots, with 2-3 small (3-5 cm) true leaves, were used as test substrate. The seedlings were infested with 20-50 green peach aphids (wingless adult and nymph) 2-3 days prior to chemical application. Four seedlings were used for each treatment. Compounds (2 mg) were dissolved in 2 ml of acetone:methanol (1:1) solvent, forming stock solutions of 1000 ppm. The stock solutions were then diluted with a diluent consisting 80 parts of 0.025% Tween 20 in […] and 20 parts of acetone:methanol (1:1). A hand-held Devilbiss sprayer was used for spraying the test solutions to both sides of cabbage leaves until runoff. Reference plants (solvent check) were sprayed with the diluent only. Treated plants were held in a holding room for three days at approximately 23° C. and 40% RH prior to grading. Evaluation was conducted by counting the number of live aphids per plant under a microscope. Insecticidal activity was measured by using Abbott's correction formula: Corrected % Control=100*(X−Y)/X • where X=No. of live aphids on solvent check plants • Y=No. of live aphids on treated plants The Corrected % Control values from assays are given in Table 2.
# [3] = test system: Green Leafhopper (Nephotettix sp.); experiment: Green leafhopper foliar spray assay on rice
# Protocol: (§1) A foliar spray assay and a root-uptake systemic assay were performed on both brown planthopper and green leafhopper. Four-week-old rice seedlings were submerged in 3-cm depth of water in the bottom portion (high 5 cm, diameter 3 cm) of a 2-part glass cylinder (high 18 cm, diameter 3 cm). A metal screen was used to hold the seedlings within the bottom portion. Scotch tape was used to bind the two portions of the cylinder after setting up the seedlings. A metal cap was used to cover the cylinder. There were 4 cylinders for each treatment. The test compound was dissolved in acetone to make a 10,000 ppm stock solution. For the foliar spray assay, this stock solution was diluted with water to make 10, 2.5, 0.31, 0.08 and 0.02 ppm test solutions. A volume of 0.5 ml of a test solution or solvent blank as check was sprayed into the glass cylinder. For systemic test, the stock solution was incorporated at final test concentrations of 10, 2.5, 0.31, 0.08 and 0.02 ppm in the water in which rice seedlings were submerged. In both foliar spray and systemic tests, five laboratory-reared 3rd instar nymphs of brown planthopper or green leafhopper were introduced into each cylinder 3 hr after insecticide application. The treated test units were kept in a growth chamber with conditions set as followings: Temperature 28±0.5° C.; Relative humidity 70±0.5%; Photoperiod […].
# [4] = test system: Brown Planthopper (Nilaparvata lugens); experiment: Brown planthopper foliar spray assay on rice
# Protocol: as §1
# [5] = test system: Green Leafhopper (Nephotettix sp.); experiment: Green leafhopper root-uptake systemic assay on rice
# Protocol: as §1
# [6] = test system: Brown Planthopper (Nilaparvata lugens); experiment: Brown planthopper root-uptake systemic assay on rice
# Protocol: as §1
structure (smiles),measurement,setting,value
"CS(=O)(Cc1ccc(C(F)(F)F)nc1)=NC#N (centres unmarked) [Compound 1, [(6-trifluoromethylpyridin-3-yl)methyl](methyl)-oxido-λ^4-sulfanylidenecyanamide]",pest or weed control at 0.049 ppm,"[1]; 0.049 ppm, 3 days after spray",90 to 100%
same,pest or weed control at 0.195 ppm,"[1]; 0.195 ppm, 3 days after spray",90 to 100%
same,pest or weed control at 0.781 ppm,"[1]; 0.781 ppm, 3 days after spray",90 to 100%
same,pest or weed control at 3.13 ppm,"[1]; 3.13 ppm, 3 days after spray",90 to 100%
same,pest or weed control at 0.781 ppm,"[2]; 0.781 ppm, 3 days after spray",< 50%
same,pest or weed control at 3.125 ppm,"[2]; 3.125 ppm, 3 days after spray",90 to 100%
"N#CN=S1(=O)CCCC1c1ccc(C(F)(F)F)nc1 (centres unmarked) [Compound 3, 2-(6-trifluoromethylpyridin-3-yl)-1-oxidotetrahydro-1H-1λ^4-thien-1-ylidenecyanamide]",pest or weed control at 0.049 ppm,"[1]; 0.049 ppm, 3 days after spray",90 to 100%
same,pest or weed control at 0.195 ppm,"[1]; 0.195 ppm, 3 days after spray",90 to 100%
same,pest or weed control at 0.781 ppm,"[1]; 0.781 ppm, 3 days after spray",90 to 100%
same,pest or weed control at 3.13 ppm,"[1]; 3.13 ppm, 3 days after spray",90 to 100%
same,pest or weed control at 0.195 ppm,"[2]; 0.195 ppm, 3 days after spray",< 50%
same,pest or weed control at 0.781 ppm,"[2]; 0.781 ppm, 3 days after spray",< 50%
same,pest or weed control at 3.125 ppm,"[2]; 3.125 ppm, 3 days after spray",60 to 69%
"CC(c1ccc(C(F)(F)Cl)nc1)S(C)(=O)=NC#N (centres unmarked) [Compound 4, (1-{6-[chloro(difluoro)methyl]pyridin-3-yl}ethyl)(methyl)-oxido-λ^4-sulfanylidenecyanamide]",pest or weed control at 0.049 ppm,[1],90 to 100%
same,pest or weed control at 0.195 ppm,[1],90 to 100%
same,pest or weed control at 0.781 ppm,[1],90 to 100%
same,pest or weed control at 3.13 ppm,[1],90 to 100%
same,pest or weed control at 0.195 ppm,[2],80 to 89%
same,pest or weed control at 0.781 ppm,[2],90 to 100%
same,pest or weed control at 3.125 ppm,[2],90 to 100%
same,% Control at ppm against green leafhopper,[3]; 0.02 ppm,E (50-59)
same,% Control at ppm against green leafhopper,[3]; 0.08 ppm,B (80-89)
same,% Control at ppm against green leafhopper,[3]; 0.31 ppm,A (90-100)
same,% Control at ppm against green leafhopper,[3]; 2.5 ppm,A (90-100)
same,% Control at ppm against green leafhopper,[3]; 10 ppm,A (90-100)
same,% Control at ppm against brown planthopper,[4]; 0.02 ppm,F (Less than 50)
same,% Control at ppm against brown planthopper,[4]; 0.08 ppm,E (50-59)
same,% Control at ppm against brown planthopper,[4]; 0.31 ppm,B (80-89)
same,% Control at ppm against brown planthopper,[4]; 2.5 ppm,A (90-100)
same,% Control at ppm against brown planthopper,[4]; 10 ppm,A (90-100)
same,% Control at ppm against green leafhopper,[5]; 0.02 ppm in water,E (50-59)
same,% Control at ppm against green leafhopper,[5]; 0.08 ppm in water,C (70-79)
same,% Control at ppm against green leafhopper,[5]; 0.31 ppm in water,A (90-100)
same,% Control at ppm against green leafhopper,[5]; 2.5 ppm in water,A (90-100)
same,% Control at ppm against green leafhopper,[5]; 10 ppm in water,A (90-100)
same,% Control at ppm against brown planthopper,[6]; 0.02 ppm in water,F (Less than 50)
same,% Control at ppm against brown planthopper,[6]; 0.08 ppm in water,E (50-59)
same,% Control at ppm against brown planthopper,[6]; 0.31 ppm in water,A (90-100)
same,% Control at ppm against brown planthopper,[6]; 2.5 ppm in water,A (90-100)
same,% Control at ppm against brown planthopper,[6]; 10 ppm in water,A (90-100)
"CC(c1ccc(C(Cl)(Cl)Cl)nc1)S(C)(=O)=NC#N (centres unmarked) [Compound 5, [1-(6-trichloromethylpyridin-3-yl)ethyl](methyl)-oxido-λ^4-sulfanylidenecyanamide]",pest or weed control at 0.049 ppm,[1],50 to 59%
same,pest or weed control at 0.195 ppm,[1],80 to 89%
same,pest or weed control at 0.781 ppm,[1],90 to 100%
same,pest or weed control at 3.13 ppm,[1],90 to 100%
same,pest or weed control at 0.781 ppm,[2],< 50%
same,pest or weed control at 3.125 ppm,[2],80 to 89%
"CS(=O)(CCc1ccc(C(F)(F)F)nc1)=NC#N (centres unmarked) [Compound 6, [2-(6-trifluoromethylpyridin-3-yl)ethyl](methyl)-oxido-λ^4-sulfanylidenecyanamide]",pest or weed control at 0.781 ppm,"[1]; 0.781 ppm, 3 days after spray",80 to 89%
same,pest or weed control at 3.13 ppm,"[1]; 3.13 ppm, 3 days after spray",80 to 89%
"CS(=O)(Cc1ccc(C(F)F)nc1)=NC#N (centres unmarked) [Compound 7, [(6-difluoromethylpyridin-3-yl)methyl](methyl)-oxido-λ^4-sulfanylidenecyanamide]",pest or weed control at 0.049 ppm,"[1]; 0.049 ppm, 3 days after spray",< 50%
same,pest or weed control at 0.195 ppm,"[1]; 0.195 ppm, 3 days after spray",80 to 89%
same,pest or weed control at 0.781 ppm,"[1]; 0.781 ppm, 3 days after spray",90 to 100%
same,pest or weed control at 3.13 ppm,"[1]; 3.13 ppm, 3 days after spray",90 to 100%
"CC(c1ccc(C(F)F)nc1)S(C)(=O)=NC#N (centres unmarked) [Compound 8, [1-(6-difluoromethylpyridin-3-yl)ethyl](methyl)-oxido-λ^4-sulfanylidenecyanamide]",pest or weed control at 0.049 ppm,"[1]; 0.049 ppm, 3 days after spray",70 to 79%
same,pest or weed control at 0.195 ppm,"[1]; 0.195 ppm, 3 days after spray",90 to 100%
same,pest or weed control at 0.781 ppm,"[1]; 0.781 ppm, 3 days after spray",90 to 100%
same,pest or weed control at 3.13 ppm,"[1]; 3.13 ppm, 3 days after spray",90 to 100%
same,pest or weed control at 0.195 ppm,"[2]; 0.195 ppm, 3 days after spray",< 50%
same,pest or weed control at 0.781 ppm,"[2]; 0.781 ppm, 3 days after spray",< 50%
same,pest or weed control at 3.125 ppm,"[2]; 3.125 ppm, 3 days after spray",< 50%
"CC(c1ccc(C(F)(F)C(F)(F)F)nc1)S(C)(=O)=NC#N (centres unmarked) [Compound 9, [1-(6-pentafluoroethylpyridin-3-yl)ethyl](methyl)-oxido-λ^4-sulfanylidenecyanamide]",pest or weed control at 0.781 ppm,"[1]; 0.781 ppm, 3 days after spray",50 to 59%
same,pest or weed control at 3.13 ppm,"[1]; 3.13 ppm, 3 days after spray",90 to 100%
"N#CN=S1(=O)CCCC1Cc1ccc(C(F)(F)F)nc1 (centres unmarked) [Compound 10, 2-[(6-trifluoromethylpyridin-3-yl)methyl]-1-oxidotetrahydro-1H-1λ^4-thien-1-ylidenecyanamide]",pest or weed control at 0.781 ppm,[1],60 to 69%
same,pest or weed control at 3.13 ppm,[1],70 to 79%
"CC(c1ccc(C(F)(F)F)nc1)S(C)(=O)=N[N+](=O)[O-] (centres unmarked) [Compound 11, 2-trifluoromethyl-5-(1-{methyl(oxido)[oxido(oxo)hydrazono]-λ^4-sulfanyl}ethyl)pyridine]",pest or weed control at 0.049 ppm,"[1]; 0.049 ppm, 3 days after spray",60 to 69%
same,pest or weed control at 0.195 ppm,"[1]; 0.195 ppm, 3 days after spray",60 to 69%
same,pest or weed control at 0.781 ppm,"[1]; 0.781 ppm, 3 days after spray",90 to 100%
same,pest or weed control at 3.13 ppm,"[1]; 3.13 ppm, 3 days after spray",90 to 100%
same,pest or weed control at 0.195 ppm,"[2]; 0.195 ppm, 3 days after spray",70 to 79%
same,pest or weed control at 0.781 ppm,"[2]; 0.781 ppm, 3 days after spray",80 to 89%
same,pest or weed control at 3.125 ppm,"[2]; 3.125 ppm, 3 days after spray",90 to 100%
CC(c1ccc(C(C)(F)F)nc1)S(C)(=O)=NC#N (centres unmarked) [Compound 12],pest or weed control at 0.781 ppm,"[1]; 0.781 ppm, 3 days after spray",90 to 100%
same,pest or weed control at 3.13 ppm,"[1]; 3.13 ppm, 3 days after spray",90 to 100%
same,pest or weed control at 0.781 ppm,"[2]; 0.781 ppm, 3 days after spray",50 to 59%
same,pest or weed control at 3.125 ppm,"[2]; 3.125 ppm, 3 days after spray",80 to 89%
